# Test results from patent US20020084230A1, “Methods for screening drugs to predict tardive dyskinesia” (priority 1997, published 2002).
# Legend:
# [1] = Hydrogen peroxide production assay (TCEP/DTNB, 96-well) in presence of Cu(II); conditions: for effect of chelating agent on hydrogen peroxide production by Vitamin C and antipsychotics: FIG. 7
# Protocol: To determine whether antipsychotics themselves could be the source of peroxidation in TD, we measured hydrogen peroxide formation in vitro using a novel 96-well assay developed specifically for that purpose. The production of hydrogen peroxide is assayed by a modification of a published method (Han, J. C. and Han, G. Y., Anal. Biochem. 220:5-10 (1994); Han, J., et al., Anal. Biochem. 234:107-109 (1996)). […] Antipsychotics (10 μM) were assayed for hydrogen peroxide formation in PBS (pH 7.4) in the presence of 10 μM Cu(II).
# Ten μM of antipsychotics and 10 μM of Cu(II) were co-incubated with 100 μM of a H2O2-trapping reagent, Tris(2-Carboxyethyl)-Phosphine Hydrochloride (TCEP), in PBS (pH 7.4) at 37° C. for 1 hour.
# SOD and catalase = conditions: rats, chronic treatment; cited from earlier work
# rats = test: Rodent model of vacuous chewing (TD model); format: in vivo, rat; conditions: 24 weeks treatment, 12 weeks withdrawal, FIG. 12
# Protocol: There are two major animal models of TD. The first is a primate model of antipsychotic-induced dyskinesia. Ten to thirty percents of Cebus or Maccaca monkeys will develop clinical dyskinesia after long-term antipsychotic treatment. The second is a rodent model of vacuous chewing. In the rodent model, when the animals are treated with antipsychotics, they develop vacuous chewing, whic phenomenological similarities to the orobuccofacial movement of TD. Only 30-60% of rats will develop vacuous chewing. The chewing movement is enhanced after the withdrawal of antipsychotic treatment. […] (FIG. 12.)
# tardive dyskinesia = conditions: patients with TD; cited from earlier work
compound,measurement,setting,value
"NCCNCCNCCN [triethylenetetramine (TETA), triethylenetetramine]",effect of chelating agent on hydrogen peroxide production by Vitamin C and antipsychotics,[1],significantly attenuate the production of hydrogen peroxide
OCCN1CCN(CCCN2c3ccccc3Sc3ccc(C(F)(F)F)cc32)CC1 [fluphenazine],dependence of hydrogen peroxide generation on copper concentration,[1]; FIG. 6,dependent on the concentration of copper
same,dependence of hydrogen peroxide generation on drug concentration,"[1]; dose response, FIG. 5",concentration dependent
same,SOD and catalase activities in the nervous system,SOD and catalase,cause a decrease in SOD and catalase activities
"Cc1cc(-c2ccc(S(=O)(=O)O)cc2)c2ccc3c(-c4ccc(S(=O)(=O)O)cc4)cc(C)nc3c2n1 [bathocuproine disulfonate (BC), bathocuproine disulfonate]",effect of chelating agent on hydrogen peroxide production by Vitamin C and antipsychotics,[1],significantly attenuate the production of hydrogen peroxide
CN1CCN(C2=Nc3cc(Cl)ccc3Nc3ccccc32)CC1 [clozapine],induction of vacuous chewing,rats,only induce vacuous chewing in a small portion of the animals
Vitamin E,effect on symptoms of TD,tardive dyskinesia,reverses the symptoms of TD
